# Species: Rattus norvegicus
# Assay: DrugMatrix - Regimen: Daily Repeat
# Type: toxicity, organism-based, Sprague-Dawley
# Set-up: regimen Daily Repeat, gender Male, age 6-8 weeks
# Details: in vivo, po, route oral GAVAGE, vehicle .5 % CMC; for ABSOLUTE BASOPHIL / ABSOLUTE EOSINOPHIL / ABSOLUTE LYMPHOCYTE / ABSOLUTE MONOCYTE / ABSOLUTE SEGMENTED NEUTROPHIL / BASOPHIL / EOSINOPHIL / ERYTHROCYTE COUNT / HEMATOCRIT / HEMOGLOBIN / LEUKOCYTE COUNT / LYMPHOCYTE / MEAN CORPUSCULAR HEMOGLOBIN / MEAN CORPUSCULAR HEMOGLOBIN CONCENTRATION / MEAN CORPUSCULAR VOLUME / MONOCYTE / NEUTROPHIL / NUCLEATED RED BLOOD CELLS / PLATELET COUNT: tissue Blood; for ALANINE AMINOTRANSFERASE / ALBUMIN / ALKALINE PHOSPHATASE / ASPARTATE AMINOTRANSFERASE / BLOOD UREA NITROGEN / CARBON DIOXIDE / CHLORIDE / CHOLESTEROL / CREATINE PHOSPHOKINASE / CREATININE / GLUCOSE / LACTATE DEHYDROGENASE / LIPASE / PHOSPHORUS / POTASSIUM / SODIUM / TOTAL BILIRUBIN / TOTAL PROTEIN / URIC ACID: tissue Plasma
# [1] = 25 mg/kg, 72 h, dose level Low, time 3 day
# [2] = 25 mg/kg, 120 h, dose level Low, time 5 day
# [3] = 1500 mg/kg, 72 h, dose level High, time 3 day
# [4] = 1500 mg/kg, 120 h, dose level High, time 5 day
structure (smiles),measurement,setting,value
Cc1ccc(S(=O)(=O)NC(=O)NN2CCCCCC2)cc1 [TOLAZAMIDE],ABSOLUTE BASOPHIL,[1],0 CELLS/uL
same,ABSOLUTE EOSINOPHIL,[1],281.67 CELLS/uL
same,ABSOLUTE LYMPHOCYTE,[1],14664 CELLS/uL
same,ABSOLUTE MONOCYTE,[1],321 CELLS/uL
same,ABSOLUTE SEGMENTED NEUTROPHIL,[1],2033.33 CELLS/uL
same,BASOPHIL,[1],0%
same,EOSINOPHIL,[1],1.67%
same,ERYTHROCYTE COUNT,[1],5.23 x10E6/uL
same,HEMATOCRIT,[1],32.97%
same,HEMOGLOBIN,[1],12.7 G/DL
same,LEUKOCYTE COUNT,[1],17.3 x10E3/uL
same,LYMPHOCYTE,[1],85%
same,MEAN CORPUSCULAR HEMOGLOBIN,[1],24.27 pg
same,MEAN CORPUSCULAR HEMOGLOBIN CONCENTRATION,[1],38.53 G/DL
same,MEAN CORPUSCULAR VOLUME,[1],63 fL
same,MONOCYTE,[1],2%
same,NEUTROPHIL,[1],11.33%
same,NUCLEATED RED BLOOD CELLS,[1],0 /100WBC
same,PLATELET COUNT,[1],1363.33 x10E3/uL
same,ALANINE AMINOTRANSFERASE,[1],47.33 u/L
same,ALBUMIN,[1],4.3 G/DL
same,ALKALINE PHOSPHATASE,[1],373.67 u/L
same,ASPARTATE AMINOTRANSFERASE,[1],73.33 u/L
same,BLOOD UREA NITROGEN,[1],13.33 mg/dL
same,CARBON DIOXIDE,[1],22 mmol/L
same,CHLORIDE,[1],102.33 MEQ/L
same,CHOLESTEROL,[1],62.67 mg/dL
same,CREATINE PHOSPHOKINASE,[1],209.33 u/L
same,CREATININE,[1],0.17 mg/dL
same,GLUCOSE,[1],152.33 mg/dL
same,LACTATE DEHYDROGENASE,[1],265 u/L
same,LIPASE,[1],9 u/L
same,PHOSPHORUS,[1],13.13 mg/dL
same,POTASSIUM,[1],7.02 MEQ/L
same,SODIUM,[1],143.5 MEQ/L
same,TOTAL BILIRUBIN,[1],0.17 mg/dL
same,TOTAL PROTEIN,[1],5.3 G/DL
same,URIC ACID,[1],1.97 mg/dL
same,ABSOLUTE BASOPHIL,[2],0 CELLS/uL
same,ABSOLUTE EOSINOPHIL,[2],87.33 CELLS/uL
same,ABSOLUTE LYMPHOCYTE,[2],13745 CELLS/uL
same,ABSOLUTE MONOCYTE,[2],575.67 CELLS/uL
same,ABSOLUTE SEGMENTED NEUTROPHIL,[2],1458.67 CELLS/uL
same,BASOPHIL,[2],0%
same,EOSINOPHIL,[2],0.67%
same,ERYTHROCYTE COUNT,[2],6.16 x10E6/uL
same,HEMATOCRIT,[2],38.13%
same,HEMOGLOBIN,[2],13.9 G/DL
same,LEUKOCYTE COUNT,[2],15.87 x10E3/uL
same,LYMPHOCYTE,[2],86.67%
same,MEAN CORPUSCULAR HEMOGLOBIN,[2],22.6 pg
same,MEAN CORPUSCULAR HEMOGLOBIN CONCENTRATION,[2],36.47 G/DL
same,MEAN CORPUSCULAR VOLUME,[2],61.93 fL
same,MONOCYTE,[2],3.67%
same,NEUTROPHIL,[2],9%
same,NUCLEATED RED BLOOD CELLS,[2],0 /100WBC
same,PLATELET COUNT,[2],1264.67 x10E3/uL
same,ALANINE AMINOTRANSFERASE,[2],46.67 u/L
same,ALBUMIN,[2],4.3 G/DL
same,ALKALINE PHOSPHATASE,[2],296.33 u/L
same,ASPARTATE AMINOTRANSFERASE,[2],92.67 u/L
same,BLOOD UREA NITROGEN,[2],17.33 mg/dL
same,CARBON DIOXIDE,[2],23.67 mmol/L
same,CHLORIDE,[2],109.33 MEQ/L
same,CHOLESTEROL,[2],61.67 mg/dL
same,CREATINE PHOSPHOKINASE,[2],320 u/L
same,CREATININE,[2],0.19 mg/dL
same,GLUCOSE,[2],152.33 mg/dL
same,LACTATE DEHYDROGENASE,[2],425.33 u/L
same,LIPASE,[2],9 u/L
same,PHOSPHORUS,[2],11.2 mg/dL
same,POTASSIUM,[2],5.71 MEQ/L
same,SODIUM,[2],148.83 MEQ/L
same,TOTAL BILIRUBIN,[2],0.17 mg/dL
same,TOTAL PROTEIN,[2],6.13 G/DL
same,URIC ACID,[2],1.27 mg/dL
same,ABSOLUTE BASOPHIL,[3],0 CELLS/uL
same,ABSOLUTE EOSINOPHIL,[3],0 CELLS/uL
same,ABSOLUTE LYMPHOCYTE,[3],13270.33 CELLS/uL
same,ABSOLUTE MONOCYTE,[3],328.33 CELLS/uL
same,ABSOLUTE SEGMENTED NEUTROPHIL,[3],801.33 CELLS/uL
same,BASOPHIL,[3],0%
same,EOSINOPHIL,[3],0%
same,ERYTHROCYTE COUNT,[3],5.57 x10E6/uL
same,HEMATOCRIT,[3],35.93%
same,HEMOGLOBIN,[3],13.3 G/DL
same,LEUKOCYTE COUNT,[3],14.4 x10E3/uL
same,LYMPHOCYTE,[3],92%
same,MEAN CORPUSCULAR HEMOGLOBIN,[3],23.9 pg
same,MEAN CORPUSCULAR HEMOGLOBIN CONCENTRATION,[3],37.03 G/DL
same,MEAN CORPUSCULAR VOLUME,[3],64.5 fL
same,MONOCYTE,[3],2.33%
same,NEUTROPHIL,[3],5.67%
same,NUCLEATED RED BLOOD CELLS,[3],0 /100WBC
same,PLATELET COUNT,[3],1235.33 x10E3/uL
same,ALANINE AMINOTRANSFERASE,[3],26.33 u/L
same,ALBUMIN,[3],4.3 G/DL
same,ALKALINE PHOSPHATASE,[3],233.33 u/L
same,ASPARTATE AMINOTRANSFERASE,[3],69 u/L
same,BLOOD UREA NITROGEN,[3],17.67 mg/dL
same,CARBON DIOXIDE,[3],25 mmol/L
same,CHLORIDE,[3],106.33 MEQ/L
same,CHOLESTEROL,[3],46.67 mg/dL
same,CREATINE PHOSPHOKINASE,[3],172 u/L
same,CREATININE,[3],0.18 mg/dL
same,GLUCOSE,[3],142 mg/dL
same,LACTATE DEHYDROGENASE,[3],80.67 u/L
same,LIPASE,[3],8 u/L
same,PHOSPHORUS,[3],9.5 mg/dL
same,POTASSIUM,[3],5.38 MEQ/L
same,SODIUM,[3],145.4 MEQ/L
same,TOTAL BILIRUBIN,[3],0.27 mg/dL
same,TOTAL PROTEIN,[3],5.8 G/DL
same,URIC ACID,[3],1.07 mg/dL
same,ABSOLUTE BASOPHIL,[4],0 CELLS/uL
same,ABSOLUTE EOSINOPHIL,[4],47.67 CELLS/uL
same,ABSOLUTE LYMPHOCYTE,[4],13177.33 CELLS/uL
same,ABSOLUTE MONOCYTE,[4],515.33 CELLS/uL
same,ABSOLUTE SEGMENTED NEUTROPHIL,[4],1493 CELLS/uL
same,BASOPHIL,[4],0%
same,EOSINOPHIL,[4],0.33%
same,ERYTHROCYTE COUNT,[4],6.17 x10E6/uL
same,HEMATOCRIT,[4],38.2%
same,HEMOGLOBIN,[4],14.3 G/DL
same,LEUKOCYTE COUNT,[4],15.23 x10E3/uL
same,LYMPHOCYTE,[4],86.67%
same,MEAN CORPUSCULAR HEMOGLOBIN,[4],23.2 pg
same,MEAN CORPUSCULAR HEMOGLOBIN CONCENTRATION,[4],37.47 G/DL
same,MEAN CORPUSCULAR VOLUME,[4],61.93 fL
same,MONOCYTE,[4],3.33%
same,NEUTROPHIL,[4],9.67%
same,NUCLEATED RED BLOOD CELLS,[4],0 /100WBC
same,PLATELET COUNT,[4],1206.33 x10E3/uL
same,ALANINE AMINOTRANSFERASE,[4],28 u/L
same,ALBUMIN,[4],4.7 G/DL
same,ALKALINE PHOSPHATASE,[4],319.67 u/L
same,ASPARTATE AMINOTRANSFERASE,[4],70.67 u/L
same,BLOOD UREA NITROGEN,[4],19 mg/dL
same,CARBON DIOXIDE,[4],25.33 mmol/L
same,CHLORIDE,[4],105.33 MEQ/L
same,CHOLESTEROL,[4],58.33 mg/dL
same,CREATINE PHOSPHOKINASE,[4],168.67 u/L
same,CREATININE,[4],0.2 mg/dL
same,GLUCOSE,[4],138.67 mg/dL
same,LACTATE DEHYDROGENASE,[4],114 u/L
same,LIPASE,[4],9.33 u/L
same,PHOSPHORUS,[4],13.07 mg/dL
same,POTASSIUM,[4],6.1 MEQ/L
same,SODIUM,[4],149.93 MEQ/L
same,TOTAL BILIRUBIN,[4],0.2 mg/dL
same,TOTAL PROTEIN,[4],6.57 G/DL
same,URIC ACID,[4],2.17 mg/dL

# Reference: ChEMBL document CHEMBL3885881, “DrugMatrix”
